Test results as given in ChEMBL document CHEMBL4814055, “Design, synthesis and molecular modeling studies of novel mesalamine linked coumarin for treatment of inflammatory bowel disease” (Bioorg Med Chem Lett, 2021).
Activity calls are given as the source filed them. No cut-off for these calls is given here.

Legend:
Rattus norvegicus [1] = experiment: Anti-ulcerative colitis activity in acetic acid-induced ulcerative colitis Wistar rat model assessed as mild deformation of mucosal layer with disruption of epithelium in colon at 400 mg/kg, po administrated for 14 days by microscopic analysis; type: functional, organism-based; conditions: time 14.0 day
Rattus norvegicus [2] = experiment: Anti-ulcerative colitis activity in acetic acid-induced ulcerative colitis Wistar rat model assessed as body weight recovery measured as body weight gain at 400 mg/kg, po administrated for 14 days relative to control; type: functional; conditions: time 14 day
Rattus norvegicus [3] = experiment: Anti-ulcerative colitis activity in acetic acid-induced ulcerative colitis Wistar rat model assessed as reduction in onset of diarrhea at 400 mg/kg, po administrated for 14 days and measured during initial 8 to 9 days of treatment; type: functional, organism-based; conditions: time 8-9 day
Rattus norvegicus [4] = experiment: Anti-ulcerative colitis activity in acetic acid-induced ulcerative colitis Wistar rat model assessed as reduction in damage of mucosa in colon at 400 mg/kg, po administrated for 14 days by microscopic analysis; type: functional, organism-based; conditions: time 14.0 day
Rattus norvegicus [5] = experiment: Anti-ulcerative colitis activity in acetic acid-induced ulcerative colitis Wistar rat model assessed as change in stool uniformity at 400 mg/kg, po administrated for 14 days; type: functional, organism-based; conditions: time 14.0 day
Rattus norvegicus [6] = experiment: Anti-ulcerative colitis activity in acetic acid-induced Wistar rat ulcerative colitis model assessed as reduction in infiltration of inflammatory cells in colon at 400 mg/kg, po administrated for 14 days by microscopic analysis; type: functional, organism-based; conditions: time 14.0 day
Rattus norvegicus [7] = experiment: Anti-ulcerative colitis activity in acetic acid-induced ulcerative colitis Wistar rat model assessed as reduction in sub-mucosal edema in colon at 400 mg/kg, po administrated for 14 days by microscopic analysis; type: functional, organism-based; conditions: time 14.0 day
Rattus norvegicus [8] = experiment: Anti-ulcerative colitis activity in acetic acid-induced ulcerative colitis Wistar rat model assessed as reduction in diarrhea at 400 mg/kg, po administrated for 14 days and measured during initial 5 to 6 days of treatment; type: functional, organism-based; conditions: time 5-6 day
Rattus norvegicus [9] = experiment: Anti-ulcerative colitis activity in acetic acid-induced ulcerative colitis Wistar rat model assessed as reduction in blood content in feces with parrot green to green dotted colour at 400 mg/kg,po administrated for 14 days; type: functional, organism-based; conditions: time 14.0 day
Rattus norvegicus [10] = experiment: Anti-ulcerative colitis activity in acetic acid-induced ulcerative colitis Wistar rat model assessed as reduction in acetic acid-induced oxidative stress by measuring increase in SOD level in colon at 400 mg/kg, po administrated for 14 days by UV spectrophotometric analysis; type: functional, organism-based; conditions: time 14.0 day
Rattus norvegicus [11] = experiment: Anti-ulcerative colitis activity in acetic acid-induced ulcerative colitis Wistar rat model assessed as reduction in acetic acid-induced lipid peroxidation by measuring reduction in MDA level in colon at 400 mg/kg, po administrated for 14 days; type: functional, organism-based; conditions: time 14.0 day
[12] = Toxicity in albino rat assessed as lethality at 2000 mg/kg; type: organism-based; conditions: in vivo
Rattus norvegicus [13] = experiment: Anti-ulcerative colitis activity in acetic acid-induced ulcerative colitis Wistar rat model assessed as normal mucosa without cryptic loss in colon at 400 mg/kg, po administrated for 14 days by microscopic analysis; type: functional, organism-based; conditions: time 14.0 day
Rattus norvegicus [14] = experiment: Anti-ulcerative colitis activity in acetic acid-induced ulcerative colitis Wistar rat model assessed as decrease in bleeding at 400 mg/kg, po administrated for 14 days and measured during initial 4-5 days of treatment; type: functional, organism-based; conditions: time 4-5 day
[15] = Toxicity in albino rat assessed as toxic symptoms at 300 mg/kg observed for 14 days; type: organism-based; conditions: in vivo, 336 h, time 14 day
[16] = Toxicity in albino rat assessed as toxic signs at 300 mg/kg observed for 14 days; type: organism-based; conditions: in vivo, 336 h, time 14 day
[17] = Toxicity in albino rat assessed as behavioral changes at 300 mg/kg observed for 14 days; type: organism-based; conditions: in vivo, 336 h, time 14 day
Rattus norvegicus [18] = experiment: Anti-ulcerative colitis activity in acetic acid-induced ulcerative colitis Wistar rat model assessed as restoration of normal stool consistency at 400 mg/kg, po administrated for 14 days and measured during initial 4-5 days of treatment; type: functional, organism-based; conditions: time 4-5 day
Rattus norvegicus [19] = experiment: Anti-ulcerative colitis activity in acetic acid-induced ulcerative colitis Wistar rat model assessed as reduction in blood content in feces without change in feces colour at 400 mg/kg, po administrated for 14 days; type: functional, organism-based; conditions: time 14.0 day

| Structure (SMILES) | Activity (Rattus norvegicus [1]) | Activity (Rattus norvegicus [2]) | Activity (Rattus norvegicus [3]) | Activity (Rattus norvegicus [4]) | Activity (Rattus norvegicus [5]) | Activity (Rattus norvegicus [6]) | Activity (Rattus norvegicus [7]) | Activity (Rattus norvegicus [8]) | Activity (Rattus norvegicus [9]) | Activity (Rattus norvegicus [10]) | Activity (Rattus norvegicus [11]) | Activity [12] | Activity (Rattus norvegicus [13]) | Activity (Rattus norvegicus [14]) | Activity [15] | Activity [16] | Activity [17] | Activity (Rattus norvegicus [18]) | Activity (Rattus norvegicus [19]) |
| --- | --- | --- | --- | --- | --- | --- | --- | --- | --- | --- | --- | --- | --- | --- | --- | --- | --- | --- | --- |
| Nc1ccc(O)c(C(=O)O)c1 [MESALAMINE] | inactive | 88% | Active | Active | Active | Active | Active | Active | Active | Active | Active |  |  |  |  |  |  |  |  |
| Cc1cc(=O)oc2c(/N=N/c3ccc(O)c(C(=O)O)c3)c(O)ccc12 |  | 92% | Active |  | Active |  |  | Active |  | Active | Active | Toxic | Active | Active | Non-Toxic | Non-Toxic | Non-Toxic | Active | Active |
